Measured values reported in ChEMBL document CHEMBL4689842, “EUbOPEN Chemogenomics Library wave 1” (2021).

Columns and labels:
Assay type in all cases: toxicity, cell-based
[1] = tested on: U2OS; assay: Incucyte cell viability with U2OS; conditions: human, 10 µM, compound concentration 10 uM
[2] = tested on: Fibroblast; assay: Incucyte cell viability with human fibroblast; conditions: 10 µM, compound concentration 10 uM
[3] = tested on: HEK-293T; assay: Incucyte cell viability with HEK293T; conditions: human, 10 µM, compound concentration 10 uM
[4] = 0 h, replicate number 2, timepoint 0 hours
[5] = 6 h, replicate number 2, timepoint 6 hours
[6] = 12 h, replicate number 1, timepoint 12 hours
[7] = 12 h, replicate number 2, timepoint 12 hours
[8] = 18 h, replicate number 1, timepoint 18 hours
[9] = 24 h, replicate number 1, timepoint 24 hours
[10] = 24 h, replicate number 2, timepoint 24 hours
[11] = 0 h, replicate number 1, timepoint 0 hours
[12] = 6 h, replicate number 1, timepoint 6 hours
[13] = 18 h, replicate number 2, timepoint 18 hours
Further: filed as whole numbers so only -1 and 0 and 1 occur.

Row | SMILES | Growth Rate [1, 4] | Growth Rate [1, 5] | Growth Rate [1, 6] | Growth Rate [1, 7] | Growth Rate [1, 8] | Growth Rate [1, 9] | Growth Rate [1, 10] | Growth Rate [2, 11] | Growth Rate [2, 12] | Growth Rate [2, 6] | Growth Rate [2, 8] | Growth Rate [2, 9] | Growth Rate [3, 11] | Growth Rate [3, 12] | Growth Rate [3, 6] | Growth Rate [3, 8] | Growth Rate [3, 9] | Growth Rate [1, 11] | Growth Rate [2, 5] | Growth Rate [1, 13] | further results
1 | COc1cccc(OC)c1-c1cc(C(=O)NC2(C(=O)O)C3CC4CC(C3)CC2C4)nn1-c1ccc(C(=O)N(C)CCCN(C)C)cc1C(C)C (centres undefined) | 0 | 0 | 1 | 0 | 0 | 0 | 1 | 0 | 0 | 0 | 0 | 0 | 1 | 0 | 0 | 1 | 1 |  |  |  | Growth Rate [2, 13]: 1; Growth Rate [2, 10]: 1; Growth Rate [3, 4]: 0; Growth Rate [3, 5]: 1; Growth Rate [3, 7]: 1; Growth Rate [3, 13]: 0
2 | O=C(O)C[C@H]1CCc2c1[nH]c1ccc(OCc3ccc(C4CCCC4)c(C(F)(F)F)c3)cc21 [ETRASIMOD] | 1 | 0 | 0 | 1 | 1 | 1 |  | 0 | 1 | 1 | 1 | 0 | 0 | 1 | 0 | 0 | 0 | 0 | 0 |  | Growth Rate [2, 4]: 1; Growth Rate [2, 10]: 1; Growth Rate [3, 7]: 1; Growth Rate [3, 13]: 1
3 | CC(=O)Nc1c(C(C)=O)c(=O)n(C)c2nc(-c3ccc(Cl)cc3Cl)c(-c3ccc(Cl)cc3)cc12 [NAPHTHYRIDINONE] | 0 | 1 | 0 |  | 0 | 0 | 1 | 0 | 1 | 0 | 0 | 0 | 0 | 0 | 0 | 0 | 0 |  | 0 | 1 | Growth Rate [3, 5]: 1
4 | CC(C)(C)NCC(O)COc1cccc2[nH]c(=O)[nH]c12.Cl (centres undefined) |  | 0 | 1 |  | 1 | 1 |  | 0 |  | 1 | 1 | 1 | 1 | 0 | 0 | 1 | 1 | 0 | 0 |  | Growth Rate [2, 7]: 0; Growth Rate [3, 4]: 0; Growth Rate [3, 10]: 0
5 | CC1=C(C#N)C(c2ccc3[nH]nc(C)c3c2)C(C#N)=C(C)N1 [BAY-474] |  |  | 0 |  | 0 | 0 |  | 1 | 0 | 1 | 1 | 1 | 0 |  |  |  |  | 0 |  | 1 | Growth Rate [1, 12]: 0; Growth Rate [3, 10]: 1
6 | Cc1cccc([C@H](C)c2c[nH]cn2)c1C.Cl [DEXMEDETOMIDINE HYDROCHLORIDE] |  | 0 | 1 |  | 0 | 1 |  | 0 |  |  |  | 1 | 0 | 0 | 0 | 0 | 0 | 0 |  | 1 | Growth Rate [2, 7]: 1; Growth Rate [2, 13]: 1
7 | C[C@H](Cc1cc2c(c(C(N)=O)c1)N(CCCO)CC2)NCCOc1ccccc1OCC(F)(F)F [SILODOSIN] |  | 0 | 1 | 0 | 1 | 1 | 0 | 0 | 0 | 0 | 0 | 1 | 0 | 0 | 0 | 0 | 0 | 0 |  |  | Growth Rate [2, 10]: 0
8 | COc1ccc2cc(OCC3(C(=O)O)CN(C(=O)c4ccc(F)cc4)C3)ccc2c1 [PF-04418948] |  | 0 | 1 | 0 | 1 | 1 | 0 | 0 | 0 | 0 | 0 | 0 | 0 | 1 | 1 | 1 | 1 | 0 | 1 | 0 | Growth Rate [2, 13]: 1; Growth Rate [2, 10]: 1; Growth Rate [3, 5]: 0; Growth Rate [3, 13]: 0
9 | CC(=O)C1=C(C)N(c2cccc(C(F)(F)F)c2)C(=O)N[C@H]1c1ccc(C#N)nc1 [BAY-677] | 1 | 0 | 1 | 0 | 1 | 0 |  | 0 | 0 | 0 | 0 | 0 | 0 |  |  | 1 | 1 | 0 | 1 | 0 | Growth Rate [1, 12]: 1
